Here are results for 5 compounds from patent US8158803B2, “Heterocyclic antiviral compounds” (Roche Palo Alto LLC, priority 2009, dated 2012).

Read-outs that look alike come from different tables or passages of the source.

In general, melting point refers to the temperature of the solid-liquid transition. In general, IC50 refers to the concentration at which inhibition is half-maximal.

The target of data set [1] is T1, HCV polymerase (NS5B570n-Con1) (Hepatitis C virus genotype 1b, UniProt Q9WMX2).
T1 construct: contains a 21 amino acid deletion at the C-terminus relative to the full-length HCV polymerase; 6-histidine (N); made in house; host or cells: E. coli BL21(DE) pLysS, plasmid pET17b
Put plainly: HCV NS5B RNA polymerase activity assay. Format: biochemical, HCV Con1 strain. As for the experimental part:
The enzymatic activity of HCV polymerase (NS5B570n-Con1) was measured as the incorporation of radiolabeled nucleotide monophosphates into acid insoluble RNA products. Unincorporated radiolabeled substrate was removed by filtration and scintillant was added to the washed and dried filter plate containing radiolabeled RNA product. The amount of RNA product generated by NS5B570-Con1 at the end of the reaction was directly proportional to the amount of light emitted by the scintillant.
The N-terminal 6-histidine tagged HCV polymerase, derived from HCV Con1 strain, genotype 1b (NS5B570n-Con1) contains a 21 amino acid deletion at the C-terminus relative to the full-length HCV polymerase and was purified from E. coli strain BL21(DE) pLysS. The construct, containing the coding sequence of HCV NS5B Con1 (GenBank accession number AJ242654) was inserted into the plasmid construct pET17b, downstream of a T7 promoter expression cassette and transformed into E. coli. A single colony was grown overnight as a starter culture and later used inoculate 10 L of LB media supplemented with 100 μg/mL ampicillin at 37° C. Protein expression was induced by the addition of 0.25 mM isopropyl-β-D-thiogalactopyranoside (IPTG) when optical density at […] of the culture was between 0.6 and 0.8 and cells were harvested after 16 to 18 h at 30° C. NS5B570n-Con1 was purified to homogeneity using a three-step protocol including subsequent column chromatography on Ni-NTA, SP-Sepharose HP and Superdex 75 resins.
Reaction mixtures were assembled in 96-well filter plates (cat #MADVN0B, Millipore Co.) and incubated for 2 h at 30° C. Reactions were stopped by addition of 10% final (v/v) trichloroacetic acid and incubated for 40 min at 4° C. […]
The amount of light emitted from the scintillant was converted to counts per minute (CPM) on a Topcount® plate reader (Perkin-Elmer, Energy Range: Low, Efficiency Mode Normal, Count Time: 1 min, Background Subtract: none, Cross talk reduction: Off).
Data was analyzed in Excel® (Microsoft) and ActivityBase® (Idbs®). […] All data was expressed as a percentage of the positive control. […]

Data set [2] has as its system genotype 1b HCV replicon in Huh7 cell line 2209-23. Put plainly: HCV replicon assay (Renilla luciferase reporter). Format: cell-based. Particulars: 2209-23 cells, three days incubation.
Another data set can be described thus: in vitro. Particulars: human.
For a further data set, the system named is HCV. The note with it: cited from earlier work.
Data set [3] relates to HCV replicon cells (2209-23). Particulars: read-out: Cytotoxicity CC50; 2209-23 cells, WST-1. In general terms: Tetrazolium assays rely on reduction of a dye to a coloured formazan, in cell work by metabolically active cells.

`CC(C)(C)c1cc(-c2ccc[nH]c2=O)cc(C2CC2c2ccc(NS(C)(=O)=O)cc2)c1` (centres unmarked) [Compound I-1, N-(4-{2-[3-tert-Butyl-5-(2-oxo-1,2-dihydro-pyridin-3-yl)-phenyl]-cyclopropyl}-phenyl)-methanesulfonamide] showed a melting point of 162 to 164 °C. In data set [1], this compound had an IC50 of 21 nM.
With `COc1c(C2CC2c2ccc(NS(C)(=O)=O)cc2)cc(-c2ccc[nH]c2=O)cc1C(C)(C)C` (centres unmarked) [Compound I-2, N-(4-{2-[3-tert-Butyl-2-methoxy-5-(2-oxo-1,2-dihydro-pyridin-3-yl)-phenyl]-cyclopropyl}-phenyl)-methanesulfonamide], in data set [2] (Hepatitis C virus, Huh-7, 72 h), the IC50 was determined as 109 nM. In addition, the CC50 in the data set “in vitro” amounted to 15000 nM.
The compound `CC(C)(C)c1cc(-c2ccc[nH]c2=O)c(O)c(C2CC2c2ccc(NS(C)(=O)=O)cc2)c1` (centres unmarked) [Compound I-3, N-(4-{2-[5-tert-Butyl-2-hydroxy-3-(2-oxo-1,2-dihydro-pyridin-3-yl)-phenyl]-cyclopropyl}-phenyl)-methanesulfonamide] yielded a melting point of 148 to 150 °C. Further, the IC50 in data set [1] came to 12 nM.
Turning to `NC(=O)c1ncn([C@@H]2O[C@H](CO)[C@@H](O)[C@H]2O)n1` [ribavirin, 1-((2R,3R,4S,5R)-3,4-Dihydroxy-5-hydroxymethyl-tetrahydro-furan-2-yl)-1H-[1,2,4]triazole-3-carboxylic acid amide], the toxicity entry in the data set with HCV (human, in vivo) is “exhibits significant toxicity and is known to induce anemia”. The “patients with serum amino transferase levels reduced to normal” value in the data set on HCV (monotherapy) is given as 40%.
Turning to “N-(6-{2-[3-tert-Butyl-6-hydroxy-2-methoxy-5-(2-oxo-1,2-dihydro-pyridin-3-yl)-phenyl]-cyclopropyl}-pyridin-3-yl)-methanesulfonamide [Compound I-4]”, the IC50 in data set [2] stood at 78 nM; in data set [1] (NS5B570n-Con1, genotype 1b, read-out: IC50 HCV Polymerase Assay), 8 nM. For the same compound, the CC50 in data set [3] came to 32800 nM.
